Seven molecules from patent publication EP4813984A1 (Jiangsu Hengrui Pharmaceuticals Co., Ltd., priority 2023, dated 2025) can be followed below.

What is called bioavailability is dose-corrected exposure relative to a reference, in per cent. Broadly, the pEC50 is the negative decadic logarithm of the EC50, by convention in mol/L.

Data set [1] is described as follows: Pharmacokinetic evaluation in monkeys after intragastric gavage (plasma LC-MS/MS). In kind it is in vivo. As to conditions: both sexes, cynomolgus monkey, po, i.g., 1 mg/kg. On the procedure:
Using cynomolgus monkeys as test animals, the plasma concentrations of the example compounds at different time points were determined by an LC-MS/MS method following administration to the monkeys by intragastric gavage (i.g.). The pharmacokinetic behaviors of the compounds of the present invention in monkeys were investigated, and the pharmacokinetic profiles thereof were evaluated.
Compound 9: Three cynomolgus monkeys (two males and one female) were provided by Guangxi Nanning Tongling Shengwu Keji Youxian Gongsi, with production license SCXK Gui-2020-0002.
Compound 9: A certain amount of the test compound was separately weighed. 5% DMSO + 30% PG + 30% PEG400 + 35% normal saline were added to prepare a 0.4 mg/mL colorless and clear solution.
Compound 9: Administration dose was 1 mg/kg and administration volume was 2.5 mL/kg.
0.5 mL of blood samples were collected from the vein before administration and at 0.25, 0.5, 1.0, 2.0, 4.0, 6.0, 8.0, 11.0, and 24.0 hours after administration and placed in EDTA-K2 anticoagulant tubes, followed by centrifugation at 10000 rpm for 2 minutes (4°C). The plasma was separated within 1 hour and stored at -20°C or -80°C for analysis. The process from blood collection to centrifugation was operated under ice bath condition.
Determination of test compound contents in […] after administration of different compounds: Compound 9: 50 µL of the monkey plasma sample collected at each time point after administration was taken. 25 µL of an internal standard acetonitrile solution (tolbutamide, 1 ug/mL) was added, followed by 450 µL of an acetonitrile solution. The mixture was vortexed and mixed, followed by centrifugation at 3700 rpm for 10 min. The supernatant was taken for LC-MS/MS analysis.

In a further data set the target is T1, hGLP-1 receptor (Homo sapiens, UniProt P43220).
T1 construct: expressed in transfected cells; host or cells: CHO-K1 (stably transfected with hGLP-1 receptor plasmid and CRE-luc plasmid)
Briefly: Agonist activity against GLP-1 receptor (CRE-luciferase reporter, ONE-Glo Luciferase Assay System). Format: cell-based. As to conditions: CHO-K1/CRE-luc/hGLP-1 receptor cells; 5 h incubation with compound; chemiluminescence readout. The text has this:
This experiment was intended to test the agonist activity of compound molecules against hGLP-1 receptor and evaluate the in vitro activity of the molecules according to EC50. In this experiment, ONE-Glo™ Luciferase Assay System (ONE-Glo™ Luciferase Assay System, Promega, E6110) was used. Under the action of the compound molecules, GLP-1R downstream signaling pathways were activated to cause elevated cAMP level. The binding of cAMP to CRE could initiate the transcriptional expression of a CRE downstream luciferase gene. The luciferase could emit fluorescence when reacting with a substrate thereof. The fluorescence signal, which reflected the activity of the compound for agonizing GLP-1 receptor, was measured by means ONE-Glo™ reagent.
A stably transfected CHO-K1/CRE-luc/hGLP-1 receptor cell strain (hGLP-1 receptor plasmid constructed in-house and CRE-luc plasmid Promega E8471) was constructed. CHO-K1/CRE-luc/hGLP-1 receptor cells were digested, centrifuged, and then resuspended. The single cell suspension was uniformly mixed and adjusted to a viable cell density of 2.78 × 10^5 cells/ml with a cell culture medium (DME/F-12 + 10% FBS). The resulting solution was added to a 96-well cell culture plate at 90 µL/well (Corning, #3903). The culture plate was incubated in an incubator for 16 h (37°C, 5% CO2).
The compound was dissolved in DMSO to prepare a stock solution with an initial concentration of 20 mM. The starting concentration of the small molecule compound was 0.02 mM. The compound was subjected to 3-fold dilution for 10 points, wherein the 11th point was DMSO. Another 96-well plate was taken, to which was added 95 µL/well of a cell culture medium (DME/F-12 + 10% FBS), followed by 5 µL/well of test samples with different concentrations. The mixtures were uniformly mixed. Next, 10 µL/well of test samples with different concentrations were added to the cell culture plate, with two duplicate wells for each sample. The culture plate was incubated in an incubator for 5 h (37°C, 5% CO2). The 96-well cell culture plate was taken out. 100 µL/well of ONE-Glo™ reagent was added, followed by incubation at room temperature for 10 minutes. Chemiluminescence was measured in and by a microplate reader (PHERAstar FS, BMG labtech).
Data were processed and analyzed using Microsoft Excel and Graphpad Prism 10. EC50 values of the compounds were obtained. Table 1. Agonist activity of the compounds of the present invention against hGLP-1 receptor
(In general: Reporter assays use an easily measured gene product as a stand-in for the process of interest.)

pEC50: −log10 of the molar value.

T1 sequence (P43220 24-463): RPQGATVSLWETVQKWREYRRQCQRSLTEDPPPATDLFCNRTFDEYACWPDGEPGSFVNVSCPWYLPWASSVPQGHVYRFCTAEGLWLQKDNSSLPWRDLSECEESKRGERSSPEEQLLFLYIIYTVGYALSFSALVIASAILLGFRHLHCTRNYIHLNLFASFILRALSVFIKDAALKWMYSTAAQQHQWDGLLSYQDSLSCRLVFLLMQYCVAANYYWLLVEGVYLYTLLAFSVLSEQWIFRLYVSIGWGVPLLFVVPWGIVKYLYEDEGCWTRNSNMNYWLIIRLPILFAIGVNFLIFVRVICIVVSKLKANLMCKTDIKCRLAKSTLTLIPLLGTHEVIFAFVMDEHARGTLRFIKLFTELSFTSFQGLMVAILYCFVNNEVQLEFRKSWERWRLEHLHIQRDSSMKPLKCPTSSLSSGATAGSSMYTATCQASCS

Take `Cc1cc(-n2nc3c(c2-c2cncn(-c4ccc5c(cnn5C)c4)c2=O)[C@H](C)N(C(=O)c2cc4cc([C@H]5CCOC(C)(C)C5)ccc4n2[C@@]2(c4noc(=O)[nH]4)C[C@@H]2C)CC3)cc(C)c1F` [Compound 9, 3-((1S,2S)-1-(5-((S)-2,2-dimethyltetrahydro-2H-pyran-4-yl)-2-((S)-2-(4-fluoro-3,5-dimethylphenyl)-4-methyl-3-(1-(1-methyl-1H-indazol-5-yl)-6-oxo-1,6-dihydropyrimidin-5-yl)-4,5,6,7-tetrahydro-2H-pyrazolo[4,3-c]pyridine-5-carbonyl)-1H-indol-1-yl)-2-methylcyclopropyl)-1,2,4-oxadiazol-5(4H)-one]: in data set [1] (read-out: Apparent volume of distribution Vz/F), the Vd/F worked out at 6.12 L/kg. In data set [1] (read-out: Area under the curve AUC0-t), the AUC(0-t) stood at 1180 ng·h/mL. In addition, the bioavailability in data set [1] (read-out: Bioavailability F) is 44.5%. In data set [1] (read-out: Clearance CL/F), the CL/F came out at 12.4 mL/min/kg. The half-life in data set [1] (read-out: Half life T1/2 (converted)) was 5.88 h. The Cmax in data set [1] (read-out: Plasma concentration Cmax) is 178 ng/mL. At hGLP-1 receptor, the negative logarithm of the EC50 (pEC50) is 10.22 and the Emax is 18.96 fold.

Take `C[C@H]1c2c(nn(-c3ccc(F)c(C4CC4)c3)c2-c2cncn(-c3ccc4c(cnn4C)c3)c2=O)CCN1C(=O)c1cc2cc([C@H]3CCOC(C)(C)C3)ccc2n1[C@@]1(c2noc(=O)[nH]2)C[C@@H]1C` [Compound 42, 3-((1S,2S)-1-(2-((S)-2-(3-cyclopropyl-4-fluorophenyl)-4-methyl-3-(1-(1-methyl-1H-indazol-5-yl)-6-oxo-1,6-dihydropyrimidin-5-yl)-4,5,6,7-tetrahydro-2H-pyrazolo[4,3-c]pyridine-5-carbonyl)-5-((S)-2,2-dimethyltetrahydro-2H-pyran-4-yl)-1H-indol-1-yl)-2-methylcyclopropyl)-1,2,4-oxadiazol-5(4H)-one]: on hGLP-1 receptor, the negative-log EC50 (pEC50) was 10.30 and the Emax was 19.67 fold.

`COCCn1ncc2c(F)c3c(cc21)OC[C@H]1CN(c2c4c(nn2-c2cc(C)c(F)c(C)c2)CCN(C(=O)c2cc5cc([C@H]6CCOC(C)(C)C6)ccc5n2[C@@]2(c5noc(=O)[nH]5)C[C@@H]2C)[C@H]4C)C(=O)N31` [Compound 30, (R)-2-((S)-5-(5-((S)-2,2-dimethyltetrahydro-2H-pyran-4-yl)-1-((1S,2S)-2-methyl-1-(5-oxo-4,5-dihydro-1,2,4-oxadiazol-3-yl)cyclopropyl)-1H-indole-2-carbonyl)-2-(4-fluoro-3,5-dimethylphenyl)-4-methyl-4,5,6,7-tetrahydro-2H-pyrazolo[4,3-c]pyridin-3-yl)-10-fluoro-7-(2-methoxyethyl)-2,3,3a,4-tetrahydro-1H,7H-imidazo[1',5':4,5][1,4]oxazino[3,2-f]indazol-1-one]: on hGLP-1 receptor, the pEC50 is 10.70 and the Emax is 20.59 fold.

As to `Cc1cc(-n2nc3c(c2-n2ccn(-c4ccc5c(cnn5C)c4F)c2=O)[C@H](C)N(C(=O)c2cc4cc5c(cc4n2[C@@]2(c4noc(=O)[nH]4)C[C@@H]2C)OCC52CCOCC2)CC3)cc(C)c1F` [Compound 7], at hGLP-1 receptor, the pEC50 is 10.52 and the Emax was determined as 14.46 fold.

On to `C[C@H]1c2c(nn(-c3ccc(F)c(C4CC4)c3)c2N2C[C@@H]3COc4cc5c(cnn5C5CC5)c(F)c4N3C2=O)CCN1C(=O)c1cc2cc([C@H]3CCOC(C)(C)C3)ccc2n1[C@@]1(c2noc(=O)[nH]2)C[C@@H]1C` [Compound 46, (R)-7-cyclopropyl-2-((S)-2-(3-cyclopropyl-4-fluorophenyl)-5-(5-((S)-2,2-dimethyltetrahydro-2H-pyran-4-yl)-1-((1S,2S)-2-methyl-1-(5-oxo-4,5-dihydro-1,2,4-oxadiazol-3-yl)cyclopropyl)-1H-indole-2-carbonyl)-4-methyl-4,5,6,7-tetrahydro-2H-pyrazolo[4,3-c]pyridin-3-yl)-10-fluoro-2,3,3a,4-tetrahydro-1H,7H-imidazo[1',5':4,5][1,4]oxazino[3,2-f]indazol-1-one], for which, on hGLP-1 receptor, the pEC50 was 10.30 and the Emax is recorded as 16.76 fold.

Consider `Cc1cc(-n2nc3c(c2N2C[C@@H]4COc5cc6c(cnn6C6CC6)c(F)c5N4C2=O)[C@H](C)N(C(=O)c2cc4cc([C@H]5CCOC(C)(C)C5)ccc4n2[C@@]2(c4noc(=O)[nH]4)C[C@@H]2C)CC3)cc(C)c1F` [Compound 13, (R)-7-cyclopropyl-2-((S)-5-(5-((S)-2,2-dimethyltetrahydro-2H-pyran-4-yl)-1-((1S,2S)-2-methyl-1-(5-oxo-4,5-dihydro-1,2,4-oxadiazol-3-yl)cyclopropyl)-1H-indole-2-carbonyl)-2-(4-fluoro-3,5-dimethylphenyl)-4-methyl-4,5,6,7-tetrahydro-2H-pyrazolo[4,3-c]pyridin-3-yl)-10-fluoro-2,3,3a,4-tetrahydro-1H,7H-imidazo[1',5':4,5][1,4]oxazino[3,2-f]indazol-1-one], for which, on hGLP-1 receptor, the pEC50 was 11.00 and the Emax worked out at 21.50 fold.

With `Cc1cc(-n2nc3c(c2N2C[C@@H]4COc5cc6c(cnn6C(F)F)c(F)c5N4C2=O)[C@H](C)N(C(=O)c2cc4cc([C@H]5CCOC(C)(C)C5)ccc4n2[C@@]2(c4noc(=O)[nH]4)C[C@@H]2C)CC3)cc(C)c1F` [Compound 25, (R)-7-(difluoromethyl)-2-((S)-5-(5-((S)-2,2-dimethyltetrahydro-2H-pyran-4-yl)-1-((1S,2S)-2-methyl-1-(5-oxo-4,5-dihydro-1,2,4-oxadiazol-3-yl)cyclopropyl)-1H-indole-2-carbonyl)-2-(4-fluoro-3,5-dimethylphenyl)-4-methyl-4,5,6,7-tetrahydro-2H-pyrazolo[4,3-c]pyridin-3-yl)-10-fluoro-2,3,3a,4-tetrahydro-1H,7H-imidazo[1',5':4,5][1,4]oxazino[3,2-f]indazol-1-one], at hGLP-1 receptor, the pEC50 was 10.70 and the Emax was determined as 18.46 fold.
